Test results: ChEMBL document CHEMBL1153194, “Discovery of halo-nitrobenzamides with potential application against human African trypanosomiasis” (Bioorg Med Chem Lett, 2010)

Assays:
[1] = test system: Trypanosoma brucei brucei; experiment: Antitrypanosomal activity against Trypanosoma brucei brucei after 48 hrs by luminescence assay; format: functional, organism-based
[2] = test system: HepG2; experiment: Cytotoxicity against human HepG2 cells after 72 hrs; format: cell-based; settings: HepG2, 72 h
[3] = test system: Plasmodium falciparum; experiment: Antiplasmodial activity against Plasmodium falciparum 3D7 infected in human O+ erythrocytes after 72 hrs by GNA satin based assay; format: functional, organism-based; settings: 3D7, 72 h
[4] = Solubility of the compound; format: physicochemical

| IC50 [1] | IC50 [3] | solubility [4] | Structure (SMILES) | IC50 [2] |
| --- | --- | --- | --- | --- |
| 19 µM | > 15 µM | < 0.1 µM | CCCCCCc1ccc(NC(=O)c2ccc([N+](=O)[O-])cc2Cl)cc1 | > 50 µM |
| > 50 µM | > 15 µM | < 0.1 µM | CCCCCCc1ccc(NC(=O)c2cccc([N+](=O)[O-])c2Cl)cc1 | > 50 µM |
| > 50 µM | > 15 µM | < 0.1 µM | CCCCCCc1ccc(C(=O)Nc2cc([N+](=O)[O-])ccc2Cl)cc1 | > 50 µM |
| 6 µM | > 15 µM | < 0.1 µM | CCCCCCc1ccc(C(=O)Nc2ccc(Cl)c([N+](=O)[O-])c2)cc1 | > 50 µM |
| 19.2 µM | > 15 µM |  | COc1ccc(NC(=O)c2cc([N+](=O)[O-])ccc2Cl)cc1 | > 50 µM |
| 20.8 µM | > 15 µM | < 0.1 µM | CCCCCCc1ccc(NC(=O)c2ccc(Cl)cc2[N+](=O)[O-])cc1 | > 50 µM |
| 7.7 µM | > 15 µM |  | Cc1ccc(NC(=O)c2cc([N+](=O)[O-])ccc2Cl)cc1 | > 50 µM |
| 1.5 µM | 7.3 µM | < 0.1 µM | CCCCCCc1ccc(NC(=O)c2cc([N+](=O)[O-])ccc2F)cc1 | 2.5 µM |

Second part, the compound before the results:

| Structure (SMILES) | IC50 [1] | IC50 [3] | solubility [4] | IC50 [2] |
| --- | --- | --- | --- | --- |
| CCCCCCc1ccc(NC(=O)c2ccc(F)c([N+](=O)[O-])c2)cc1 | 24 µM | > 15 µM | < 0.1 µM | 10.3 µM |
| COc1ccc(N2CCN(C(=O)c3cc([N+](=O)[O-])ccc3Cl)CC2)cc1 | 24.5 µM | > 15 µM |  | > 50 µM |
| O=C(Nc1ccc(Cl)cc1)c1cc([N+](=O)[O-])ccc1Cl | 1.5 µM | > 15 µM |  | > 50 µM |
| O=C(NCC1CCCCC1)c1cc([N+](=O)[O-])ccc1Cl | 27 µM | > 15 µM |  | > 50 µM |
| CCCCCCc1ccc(NC(=O)c2cc([N+](=O)[O-])ccc2Cl)cc1 | 1 µM | > 15 µM | < 0.1 µM | > 50 µM |
| CCCCCCc1ccc(C(=O)Oc2ccc(Cl)c([N+](=O)[O-])c2)cc1 | 24 µM | > 15 µM | < 0.1 µM | > 50 µM |
| O=C(NCc1ccccc1)c1cc([N+](=O)[O-])ccc1Cl | > 50 µM | > 15 µM |  | > 50 µM |
| CCCCCCc1ccc(NC(=O)c2ccc(Cl)c([N+](=O)[O-])c2)cc1 | 11.9 µM | > 15 µM | < 0.1 µM | > 50 µM |
| CCCCCCc1ccc(NC(=O)c2c(Cl)cccc2[N+](=O)[O-])cc1 | 29.8 µM | > 15 µM | < 0.1 µM | > 50 µM |
